Surviving fraction data for five test systems are collected here from the supplement of paper PMC6045584.

Compound in assay [1]: C=CCn1c(=O)c2cnc(Nc3ccc(N4CCN(C)CC4)cc3)nc2n1-c1cccc(C(C)(C)O)n1 [MK-1775]
Put plainly: surviving fraction relative to DMSO-only wells; higher = less growth inhibition. The note with it: exposure time: 5 days. The method in brief:
(§1)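 Surviving fraction is CellTiter-Glo luminescence divided by the median of wells given DMSO only. For this, log-phase tumour cell lines went into 384-well plates at 250–500 cells per well and, 24 hours later, into five days of continuous inhibitor exposure at 0.5, 1, 5, 10, 50, 100, 500 and 1000 nM. Lines were screened three times and retained only if replicate Pearson r >0.7 and median Z' >0.3.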

Compound in assay [2]: CC/C(=C(\c1ccc(O)cc1)c1ccc(OCCN(C)C)cc1)c1ccccc1 [AFIMOXIFENE]
The description is as above. To be noted: exposure time: 5 days. Put shortly: as §1

± gives the standard deviation of the averaged measurements.

In the case of MDAMB453 BREAST, the surviving fraction in assay [1] (0.5 nM) was 1.09 ± 0.021; in assay [1] (1 nM), 1.07 ± 0.034; in assay [1] (5 nM), 1.13 ± 0.048; in assay [1] (10 nM), 1.06 ± 0.052; in assay [1] (50 nM), 1.14 ± 0.076; in assay [1] (100 nM), 0.959 ± 0.1. Also, the surviving fraction stood at 0.214 ± 0.041 in assay [1] (500 nM); 0.161 ± 0.021 in assay [1] (1000 nM); 1.09 ± 0.098 in assay [2] (0.5 nM); 1.07 ± 0.07 in assay [2] (1 nM); 1.11 ± 0.066 in assay [2] (5 nM); 1.17 ± 0.16 in assay [2] (10 nM). In addition, the surviving fraction in assay [2] (50 nM) came to 1.1 ± 0.068; in assay [2] (100 nM), 1.07 ± 0.029; in assay [2] (500 nM), 1.07 ± 0.039; in assay [2] (1000 nM), 1.02 ± 0.026.
Take MDAMB436 BREAST: the surviving fraction amounted to 0.978 ± 0.045 in assay [1] (0.5 nM); 0.969 ± 0.028 in assay [1] (1 nM); 0.948 ± 0.031 in assay [1] (5 nM); 0.902 ± 0.081 in assay [1] (10 nM); 0.79 ± 0.073 in assay [1] (50 nM); 0.66 ± 0.023 in assay [1] (100 nM). The surviving fraction is 0.312 ± 0.013 in assay [1] (500 nM); 0.317 ± 0.021 in assay [1] (1000 nM); 0.962 ± 0.085 in assay [2] (0.5 nM); 0.99 ± 0.11 in assay [2] (1 nM); 0.965 ± 0.087 in assay [2] (5 nM); 1.03 ± 0.21 in assay [2] (10 nM). For the same test system, the surviving fraction in assay [2] (50 nM) stood at 1.03 ± 0.11; in assay [2] (100 nM) it was 1.08 ± 0.13; in assay [2] (500 nM) it was 1.01 ± 0.066; in assay [2] (1000 nM) it was 1 ± 0.063.
For SIHA CERVIX, the surviving fraction in assay [1] (0.5 nM) came to 1.08 ± 0.03; in assay [1] (1 nM), 1.04 ± 0.054; in assay [1] (5 nM), 1.09 ± 0.066; in assay [1] (10 nM) it was 1.08 ± 0.039; in assay [1] (50 nM), 1.17 ± 0.085; in assay [1] (100 nM), 1.16 ± 0.057. For the same test system, the surviving fraction is 0.277 ± 0.049 in assay [1] (500 nM); 0.0987 ± 0.013 in assay [1] (1000 nM); 1.1 ± 0.029 in assay [2] (0.5 nM); 1.07 ± 0.051 in assay [2] (1 nM); 1.09 ± 0.072 in assay [2] (5 nM); 1.19 ± 0.031 in assay [2] (10 nM). Besides, the surviving fraction in assay [2] (50 nM) turned out to be 1.15 ± 0.06; in assay [2] (100 nM) it was 1.21 ± 0.032; in assay [2] (500 nM), 1.13 ± 0.062; in assay [2] (1000 nM), 1.09 ± 0.058.
In the case of 143B BONE, the surviving fraction in assay [1] (0.5 nM) was found to be 0.998 ± 0.0057; in assay [1] (1 nM), 1.01 ± 0.033; in assay [1] (5 nM), 1.02 ± 0.045; in assay [1] (10 nM), 1.02 ± 0.0028; in assay [1] (50 nM) it was 1.025 ± 0.0057; in assay [1] (100 nM), 0.993 ± 0.013. The surviving fraction stood at 0.111 ± 0.011 in assay [1] (500 nM); 0.067 ± 0.0042 in assay [1] (1000 nM); 1.09 ± 0.041 in assay [2] (1 nM); 1.15 ± 0.11 in assay [2] (5 nM); 1.1 ± 0.036 in assay [2] (10 nM); 1.12 ± 0.035 in assay [2] (50 nM). The surviving fraction in assay [2] (100 nM) turned out to be 1.1 ± 0.033; in assay [2] (500 nM), 1.14 ± 0.12; in assay [2] (1000 nM) it was 1.12 ± 0.15.
U2OS BONE: the surviving fraction is 1.03 ± 0.028 in assay [1] (0.5 nM); 0.991 ± 0.043 in assay [1] (1 nM); 1.07 ± 0.032 in assay [1] (5 nM); 1.07 ± 0.034 in assay [1] (10 nM); 0.922 ± 0.039 in assay [1] (50 nM); 0.641 ± 0.028 in assay [1] (100 nM). The surviving fraction amounted to 0.133 ± 0.002 in assay [1] (500 nM); 0.0693 ± 0.0045 in assay [1] (1000 nM); 1.06 ± 0.056 in assay [2] (0.5 nM); 1.07 ± 0.035 in assay [2] (1 nM); 1.08 ± 0.024 in assay [2] (5 nM); 1.1 ± 0.022 in assay [2] (10 nM). Also, the surviving fraction in assay [2] (50 nM) worked out at 1.12 ± 0.015; in assay [2] (100 nM), 1.1 ± 0.017; in assay [2] (500 nM) it was 1.08 ± 0.057; in assay [2] (1000 nM), 1.01 ± 0.021.
